The conditions of series [1]: literature value, cited from earlier work.
For series [2] the following is noted: literature value, cited from earlier work. This is another data set of the same source.
Series [3] in a line: Hydrogen isotope (H/D) exchange protection by NMR. Conditions: pH 7 and 25° C. The format is physicochemical. From the text: To engineer water exclusion, the potentially culpable protein motion was constrained. […] Indeed, Construct 2 could be modified to introduce large-scale syn-anti flipping. To constrain motion, the loops were reconfigured to link the helices across the most mobile interface. This also allowed the loops to be linked into a monomeric “candelabra” structure, further constraining motion (Construct 6 in FIG. 1). NMR confirmed the water-restricting effects of loop reconfiguration and monomerization. Hydrogen isotope (H/D) analysis of hydrogen exchange protection factors of Constructs 4 and 6 at pH 7 and 25° C.

The nature of series [4]: O2 binding kinetics and oxy-ferrous heme formation/stability (stopped-flow; low-temperature CO/O2 ligand exchange). Conditions: for oxy-ferrous heme yield: −15° C., exposed to CO, then illuminated to exchange ligand for O2; for stabilization of the oxy-ferrous heme: effect of loop configuration; for O2 binding / oxy-ferrous heme formation (in words): reduced (ferrous) heme protein with O2. As to the method:
(§1) Predominantly mono-exponential binding kinetics of O2 and CO with the ferrous heme B in Construct 6 were followed spectroscopically in rapid stopped-flow mixing over gas concentrations from 2% to 50% saturation at 15° C. using an Olis RSM 1000 spectrometer (Bogart, Ga.) that scans both the alpha band and Soret band absorptions 1,000 times a second, followed by SVD analysis of the kinetic components. The dissociation rate of the CO complex was determined by competition with ferricyanide using a range of ferricyanide concentrations according to the ferric heme trapping method described previously.
Preparations of ferrous heme synthetic proteins in CO saturated 30% ethylene glycol borate buffer at pH 9.0 were stable to ligand exchange on a timescale of several minutes in the dark at −15° C. This allowed spectra such as those shown in FIG. 2 to be prepared by re-equilibration with O2 or O2/CO gas mixtures, followed by photolysis by halogen lamp illumination for several seconds to initiate rapid O2 binding, as described previously.
In fact, none of the artificial hemes proteins examined above were able to bind this gas stably at room temperature. […] Constructs 2, 3, 4 and 5 all include the glutamate-based helical strain, which weakens the histidine ligation and allows competition from other ligands. By first exposing these heme proteins to CO and then illuminating at a low temperature to initiate ligand exchange for O2, as was done previously with cytochrome oxidase, each formed an oxy-ferrous heme at near 100% yield at −15° C. The probable reason for room temperature instability was the access of water and protons to the heme-binding site, which facilitates electron transfer from ferrous heme to oxygen. This is clear from mutant studies of globins and the relative stability of the oxy-ferrous heme in chemical systems in water-free solvents.

A short description of series [5]: Heme binding to the constructs. Conditions: two-heme variants, read-out: heme binding affinities.
For series [6] the following is noted: literature value; cited from earlier work.
Series [7] can be described thus: Potentiometric titration (oxidation-reduction midpoint potential). Type of series: physicochemical.
The nature of series [8]: CO binding and release kinetics (stopped-flow mixing, flash photolysis, ferricyanide competition). The conditions noted are these: stopped-flow with CO. As to the method:
as §1
CO rebinding after photolysis by a frequency-doubled YAG laser at 532 nm, with a ˜1-ns pulse width (FIG. 3C), was multi-exponential, a characteristic signature of human neuroglobins. Detailed analysis of time-resolved spectra in the flash experiments was consistent with a rapid exponential phase due to a change in pentacoordinate heme conformation (FIG. 3B), similar to that reported for myoglobin [46]. […]
Saturation of the observed CO binding rate allowed estimates of the opening and closing rates. […] Table 1 presents the kinetic constants (also shown in FIG. 3A) and equilibrium binding constants that have been determined for Construct 6 and contrasts them with several natural oxygen-binding proteins. […]

For series [9] the following is noted: heme B, cited from earlier work.
The mark [10] stands for this setting: not in parentheses, read-out: KdCO.
Where [11] appears, read: not in parentheses, read-out: KdO2.

Residue numbers refer to the chain shown, from its start. Read-outs that look alike come from different tables or passages of the source. Ends that are not written are not given here.

Take Human haemoglobin: the kCO off in series [1] was 0.009 s⁻¹. The kCO on in [1] (not in parentheses) was 2.2 µM⁻¹ s⁻¹. For the same molecule, the Kd in [1] (setting [10]) is 4 nM; in [2] (setting [11]), 770 nM. In series [2], the kO2 off is 15 s⁻¹. Moreover, the KdO2/KdCO in series [2] (not in parentheses) is reported as 190. Also, the kO2 on in series [2] (not in parentheses) is 19 µM⁻¹ s⁻¹.

Regarding “Construct 4: cystine derivative of SEQ ID NO:8 (CGGGEIWKQHEEALKKFEEALKQFEELKKL; also: cystine derivative)”, the “time to complete water-mediated proton exchange” value in series [3] is given as not above 15 min. Also, the oxy-ferrous heme yield in [4] is reported as approximately 100%.

Consider Myoglobin, for which the kCO off in series [1] was 0.019 s⁻¹. For the same molecule, the kCO on in series [1] (not in parentheses) was 0.5 µM⁻¹ s⁻¹. The Kd in series [1] (setting [10]) is 37 nM; in series [2] (setting [11]) it was 860 nM. In addition, the kO2 off in series [2] is 12 s⁻¹. For the same molecule, the KdO2/KdCO in [2] (not in parentheses) is listed as 23. Further, the kO2 on in series [2] (not in parentheses) was 14 µM⁻¹ s⁻¹.

In series [4], “Construct 3: cystine derivative of SEQ ID NO:7 (CGGGEIWKLHEEFLKKFEELLKLHEERLKKL; also: cystine derivative)” came in with an oxy-ferrous heme yield of approximately 100%.

On to “CGGGEIWKQFEEALKKLFAFHFILPFIIMAIAMVFLLFLFGEGL [Construct 14, AP6 with histidines at positions 10 and 35 mutated to phenylalanine]”, for which the Kd in series [5] (tighter site) fell in the range of 200 to 500 nM; in series [5] (weaker site), 1000 to 3000 nM.

Turning to Ascaris haemoglobin, the kCO off in series [1] was 0.018 s⁻¹. Moreover, the kCO on in series [1] (not in parentheses) was 0.2 µM⁻¹ s⁻¹. The Kd was 90 nM in series [1] (setting [10]) and 3 nM in [2] (setting [11]). Also, the kO2 off in series [2] is 0.004 s⁻¹. The KdO2/KdCO in series [2] (not in parentheses) is reported as 0.03. Also, the kO2 on in series [2] (not in parentheses) is 1.5 µM⁻¹ s⁻¹.

With “Construct 5: cystine derivative of SEQ ID NO:9 (CGGGEIWKQHEDALQKFEDALNQFEELKQL; also: cystine derivative)”, in [4], the “stabilization of the oxy-ferrous heme” value was “not to be stabilized” and the oxy-ferrous heme yield was approximately 100%.

In the case of “CGGGEIWKQHEEALKKLFAFFFILPFIIMAIAMVFLLFLFGEGL [Construct 13]”, the Kd lay within 50 to 200 nM in series [5] (tighter site) and 1000 to 4000 nM in series [5] (weaker site). Also, the “O2 binding / oxy-ferrous heme formation (in words)” value in series [4] was “able to bind O2”.

Consider “CGGGEIWKQFEEALKKLFAFFFILPFIIMAIAMVHLLFLFGEGL [Construct 15, AP6 with histidines at positions 10 and 21 mutated to phenylalanine]”, for which the Kd in [5] (tighter site) was 100 nM; in [5] (weaker site) it was 4500 nM.

Turning to “Construct 2: cystine derivative of SEQ ID NO:6 (CGGGELWKLHEELLKKFEELLKLHEERLKKL; also: cystine derivative)”, in series [4], the “O2 binding / oxy-ferrous heme formation (in words)” value was “proceeded directly and rapidly to the oxidized form”; the oxy-ferrous heme yield was approximately 100%.

Turning to Micro-peroxidase, the kCO off in [1] is 0.01 s⁻¹. Besides, the kCO on in series [1] (not in parentheses) was 20 µM⁻¹ s⁻¹. In addition, the Kd in series [1] (setting [10]) is 0.5 nM.

B1: Neuroglobin (protein, UniProt Q9NPG2 1-151, looked up)
Neuroglobin: MERPEPELIRQSWRAVSRSPLEHGTVLFARLFALEPDLLPLFQYNCRQFSSPEDCLSSPEFLDHIRKVMLVIDAAVTNVEDLSSLEEYLASLGRKHRAVGVKLSSFSTVGESLLYMLEKCLGPAFTPATRAAWSQLYGAVVQAMSRGWDGE
On to B1, for which, in [6], the kHis off was 4.5 s⁻¹. Moreover, the kHis on in series [6] is reported as 2,000 s^−1. Moreover, the kCO off in [1] was 0.014 s⁻¹. Further, the “kCO on (apparent)” value in [1] (in parentheses: apparent) is listed as “(0.15) μM^−1s^−1”. Further, the Kd in series [1] (in parentheses: apparent, read-out: KdCO (apparent)) was 93 nM; in series [1] (setting [10]) it was 0.21 nM; in [2] (in parentheses: apparent, read-out: KdO2 (apparent)), 1400 nM; in series [2] (setting [11]), 3.2 nM. Besides, the kCO on in series [1] (not in parentheses) was 65 µM⁻¹ s⁻¹. Moreover, the kO2 off in series [2] was 0.8 s⁻¹. Besides, the “KdO2/KdCO (apparent)” value in series [2] (in parentheses: apparent) is “(15)”. In series [2] (in parentheses: apparent), the “kO2 on (apparent)” value is given as “(0.56) μM^−1s^−1”. Besides, the kO2 on in series [2] (not in parentheses) was 250 µM⁻¹ s⁻¹.

B2: Construct 6: cystine derivative of SEQ ID NO:1; four-helix bundle oxygen transport protein (protein)
chain: GEIWKQHEDALQKFEEALNQFEDLKQLGGSGCGSGGEIWKQHEDALQKFEEALNQFEDLKQL
modifications: cystine derivative
notes: four-helix bundle oxygen transport protein
As to B2, the “oxidation-reduction midpoint potential at pH 8 (Em8)” value in series [7] (bound heme A, pH 8, versus normal hydrogen electrode (NHE)) is on record as −100 mV. In addition, the “Em8 of bound heme A more positive than heme B” value in [7] (heme A versus heme B) is listed as “about 200 mV”. Further, the “timescale of exchange of core residue backbone amides” value in [3] was “several hours”. Further, in [4], the “O2 on-rate compared with human neuroglobin” value was approximately 100 times slower, the “net discrimination favoring O2 binding over CO binding” value is on record as “tenfold”, the “stabilization of the oxy-ferrous heme” value was “stabilized by looping together helices not linked by heme” and the “O2 binding / oxy-ferrous heme formation (in words)” value is on record as “transformation of the reduced heme to the oxy-ferrous state”. Moreover, the “persistence of oxy-ferrous heme A before electron transfer” value in series [4] (heme A) was “about half a minute”. In addition, the “duration of stability of the oxy-ferrous state” value in series [4] (heme B, before electron transfer from ferrous heme to O2) is given as “tens of seconds”. In addition, in [8], the “half time of carboxy-ferrous heme formation” value amounted to 400 ms and the “stability of carboxy-ferrous heme species” value is given as “indefinitely stable”. Besides, the Kd in series [9] (first heme, read-out: dissociation constant (Kd) for binding of the first heme) was less than 1 nM. Further, the Kd in series [9] (second heme, read-out: dissociation constant (Kd) for binding of the second heme) is 50 nM.

B3: Construct 7: SEQ ID NO:11; single chain four-helix bundle peptide (protein)
chain: GMTPEQIWKQHEDALQKFEDALNQFEELKQLGGSGSGSGGEIWKQHEDALQKFEDALNQFEELKQLGGSGGSGGSGGEIWKQHEDALQKFEDALNQFEELKQLGGSGSGSGGEIWKQHEDALQKFEDALNQFEELKQL
Consider B3, for which, in [4], the “O2 binding / oxy-ferrous heme formation (in words)” value is listed as “retained the O2 binding functionality of Construct 6”.

B4: Construct 10: SEQ ID NO:14; single chain four-helix bundle with CXXCH insert, covalently bound heme C (protein)
chain: B3 chain with W43C, Q45C
modifications: covalently bound heme C
B4: the “Em (midpoint potential)” value in [7] (covalently bound c-type heme, pH 9) is recorded as −232 mV. Moreover, the “O2 binding / oxy-ferrous heme formation (in words)” value in series [4] was “bound molecular oxygen”.

The values above are taken from US8846619B2, “Artificial oxygen transport protein” (The Trustees of the University of Pennsylvania, priority 2009, dated 2014).
